In the supplement of paper PMC10307832:

Tests used:
Experiment in all cases: relative viability (nuclei count vs DMSO), 5 days (fraction); higher = more cells survive
[1] = compound: CN1CCC(CNc2ccc3ncc(-c4cccc(OC(F)(F)F)c4)n3n2)CC1 [SGI-1776]
How it was run: (§1)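 Lung cancer cell lines were seeded into 1536-well plates, kept overnight at 37 °C and pinned with five library-drug doses (not always all listed) spaced by √10. After 5 days, nuclei were Hoechst-stained, imaged at 4× and counted with MetaXpress. Viability is treated-well nuclei over vehicle-well nuclei, taken as a median across plates. Plates needed control CV below 25% and at least one doubling.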

[2] = compound: C1COCCN1C2=NC(=NC3=C2OC4=C3C=CC=N4)C5=CC(=CC=C5)NC(=O)C6=CN=C(C=C6)N
How it was run: as §1

[3] = compound: Nc1ccccc1NC(=O)c1ccc(CNC(=O)OCc2cccnc2)cc1 [Entinostat]
How it was run: as §1

[4] = compound: C1COCCN1C2=NC(=NC3=C2OC4=C3C=CC=N4)C5=CC(=CC=C5)NC(=O)C6=CN=C(C=C6)N + COc1cc2c(Oc3ccc(NC(=O)C4(C(=O)Nc5ccc(F)cc5)CC4)cc3F)ccnc2cc1OCCCN1CCOCC1 [Foretinib] (partner 0.25 µM)
How it was run: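 For relative viability, nuclei counts in treated wells were divided by those in vehicle wells. Lung cancer cell lines had been pin-tool dosed in 1536-well plates the day after seeding and cultured for 5 days, then fixed and stained in one step (final 0.05% Triton X-100, 1% formaldehyde, 1 ug/ml Hoechst) and imaged at 4×. Doses were one drug alone or a fixed anchor-drug dose plus five library-drug doses (not always all listed) in √10 steps, and values are duplicate-plate medians.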

Cell Line	relative viability ([1]; 0.08 µM)	relative viability ([1]; 0.8 µM)	relative viability ([1]; 2.53 µM)	relative viability ([1]; 8 µM)	relative viability ([2]; 0.02 µM)	relative viability ([2]; 0.06325 µM)	relative viability ([2]; 0.2 µM)	relative viability ([2]; 0.6325 µM)	relative viability ([2]; 2 µM)	relative viability ([3]; 0.02 µM)	relative viability ([3]; 0.06325 µM)	relative viability ([3]; 0.2 µM)	relative viability ([3]; 0.6325 µM)	relative viability ([3]; 2 µM)	relative viability ([4]; first compound 0.02 µM)	relative viability ([4]; first compound 0.06325 µM)	relative viability ([4]; first compound 0.2 µM)	relative viability ([4]; first compound 0.6325 µM)	relative viability ([4]; first compound 2 µM)
HOP-62	1.09	0.956	1.05	0.998	0.974	1.15	1.09	0.961	0.762	1.05	0.974	0.97	0.633	0.356	1.12	1.2	1.12	1.02	0.568
NCI-H661	1.02	1.04	1.06	0.974	0.989	1.04	0.978	1	0.813	1	0.999	0.911	0.809	0.664	1	1.05	1.02	0.999	0.742
NCI-H358	0.986	0.957	0.897	0.512	0.864	1.09	0.871	0.832	0.625	1.09	1.17	0.934	0.641	0.255	–	0.721	0.537	0.68	0.477
BEN	0.984	0.955	0.819	0.812	1.03	0.917	1.02	0.934	0.837	0.97	1.04	0.835	0.653	0.357	0.681	0.609	0.594	0.451	0.72
ChaGo-K-1	1.06	1.01	0.949	0.855	0.949	1.07	0.897	1.01	0.837	1.04	0.934	1.11	0.961	0.881	0.971	1.04	0.955	0.832	0.582
SK-MES-1	1.06	1.07	1	0.868	1.02	1.08	0.925	0.868	0.673	1.01	1.15	1.19	1.02	0.701	0.934	1.17	0.929	0.792	0.662
NCI-H2085	0.95	1.07	1.03	0.9	0.936	1.03	1.01	0.946	0.75	0.98	0.974	1	0.756	0.559	0.998	0.998	0.775	0.938	0.604
LCLC-103H	1.02	0.998	0.964	0.924	0.913	1.06	1.07	0.978	0.815	1.03	1.06	0.942	0.721	0.454	0.872	0.777	0.789	0.643	0.474
NCI-H1703	0.909	0.796	0.588	0.218	0.805	0.975	0.76	0.685	0.505	1.05	1.3	1.33	1.03	0.646	0.284	0.413	0.371	0.305	0.285
EBC-1	1.04	0.952	0.971	0.67	0.911	1.16	0.936	0.964	0.576	1.06	1.02	0.865	0.306	0.165	0.115	0.0996	0.111	0.102	0.0879
201T	1.01	0.991	0.964	0.891	0.963	0.994	0.985	1	0.897	1.04	1.04	1.03	0.712	0.624	1.31	1.05	1.1	1.1	1.09
NCI-H2023	0.983	1.04	0.853	0.598	1.08	1.13	0.85	0.83	0.496	0.849	0.786	0.495	0.166	0.0931	0.889	1.07	0.765	0.759	0.511
NCI-H1395	1.04	1.04	0.827	0.621	0.846	0.935	0.724	0.801	0.821	1.1	1.15	0.962	0.745	0.601	0.919	0.909	0.924	0.984	0.894
NCI-H23	0.921	1.01	1.06	0.887	0.937	0.843	0.869	0.854	0.654	1.06	1.27	1.15	0.9	0.395	0.85	–	0.943	0.815	0.493
LXF-289	1.01	1.05	1.05	0.959	1.06	1.03	1.07	0.995	0.8	1	0.978	0.952	0.711	0.63	0.994	1	0.985	0.952	0.747
NCI-H1563	1	1.05	0.925	0.756	0.938	0.992	0.859	0.786	0.758	0.938	0.959	0.887	0.816	0.776	0.833	0.911	0.862	0.856	0.823
EKVX	1.12	1.1	0.989	0.895	1.02	1.07	0.963	1.01	0.825	1.02	1.11	0.894	0.686	0.444	0.97	1.01	0.773	0.751	0.339
